Measurements reported in patent US8546343B2, “Aminoglycoside antibiotics targeting bacterial 16S ribosomal RNA” (Eidgenoessische Technische Hochschule Zurich, priority 2007, dated 2013).
In brackets after ≈: the same amount, converted by molar mass.

Assays:
[1] = tested on: AG009 E. coli BM13 AAC(6′)-1B; test: Standard MIC assay, AG009; type: cell-based, Escherichia coli; conditions: E. coli BM13 AAC(6′)-1B
Procedure: (§1) Selected compounds of the present invention were tested for antibiotic susceptibility using clinical isolates of Staphylococci, Enterococci and Escherichia coli as well as strains carrying defined resistance determinants and compared to well known antibiotics of the state of the art. Drug susceptibility was determined in standard MIC assays, i.e. by determination of the minimal drug concentration required to inhibit bacterial growth in vitro.

[2] = tested on: AG002 E. coli clinical isolate; test: Standard MIC assay, AG002; type: cell-based, Escherichia coli
Procedure: as §1

[3] = tested on: AG006 E. coli BM13; test: Standard MIC assay, AG006; type: cell-based, Escherichia coli
Procedure: as §1

[4] = tested on: AG004 E. coli clinical isolate; test: Standard MIC assay, AG004; type: cell-based, Escherichia coli
Procedure: as §1

[5] = tested on: AG014 Staph. epi. clinical isolate; test: Standard MIC assay, AG014; type: cell-based, Staphylococcus epidermidis
Procedure: as §1

[6] = tested on: M. smegmatis ΔrrnB 1491A (16S rRNA position 1491 A, eukaryotic cytosolic ribosomes); test: MIC, recombinant M. smegmatis with mutant ribosomes 1491A; type: cell-based, Mycobacterium smegmatis; conditions: M. smegmatis ΔrrnB 1491A mutant ribosomes; 72 h at 37° C.
Summary of the method: (§2)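 M. smegmatis single-rRNA-operon strain carrying the indicated 16S rRNA decoding-site alleles, introduced into the chromosomal operon and confirmed by sequencing. Colony-purified cultures were grown in LB with 0.05% Tween 80 and started at OD600 0.025. MIC was read in microtiter format against twofold drug dilutions.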

[7] = tested on: AG007 E. coli BM13 (AAC3); test: Standard MIC assay, AG007; type: cell-based, Escherichia coli; conditions: E. coli BM13 (AAC3)
Procedure: as §1

[8] = tested on: AG011 Staph. aureus clinical isolate; test: Standard MIC assay, AG011; type: cell-based, Staphylococcus aureus
Procedure: as §1

[9] = tested on: AG001 E. coli clinical isolate; test: Standard MIC assay, AG001; type: cell-based, Escherichia coli
Procedure: as §1

[10] = tested on: AG019 E. faecalis JH2-2 (APH2″ AAC6′); test: Standard MIC assay, AG019; type: cell-based, Enterococcus faecalis; conditions: E. faecalis JH2-2 (APH2″ AAC6′)
Procedure: as §1

[11] = tested on: AG003 E. coli clinical isolate; test: Standard MIC assay, AG003; type: cell-based, Escherichia coli
Procedure: as §1

[12] = tested on: AG013 Staph. epi. clinical isolate; test: Standard MIC assay, AG013; type: cell-based, Staphylococcus epidermidis
Procedure: as §1

[13] = tested on: AG015 S. aureus BM3002 (ANT4′); test: Standard MIC assay, AG015; type: cell-based, Staphylococcus aureus; conditions: S. aureus BM3002 (ANT4′)
Procedure: as §1

[14] = tested on: AG016 S. aureus BM3002; test: Standard MIC assay, AG016; type: cell-based, Staphylococcus aureus
Procedure: as §1

[15] = tested on: AG008 E. coli BM13 (ANT2″); test: Standard MIC assay, AG008; type: cell-based, Escherichia coli; conditions: E. coli BM13 (ANT2″)
Procedure: as §1

[16] = tested on: AG017 E. faecalis JH2-2; test: Standard MIC assay, AG017; type: cell-based, Enterococcus faecalis
Procedure: as §1

[17] = tested on: M. smegmatis ΔrrnB (bacterial ribosomes); test: MIC, recombinant M. smegmatis with bacterial (wild-type) ribosomes; type: cell-based, Mycobacterium smegmatis; conditions: 72 h at 37° C.
Summary of the method: as §2

[18] = tested on: M. smegmatis ΔrrnB 1491C (16S rRNA position 1491 C, eukaryotic mitochondrial ribosome); test: MIC, recombinant M. smegmatis with mutant ribosomes 1491C; type: cell-based, Mycobacterium smegmatis; conditions: M. smegmatis ΔrrnB 1491C mutant ribosomes; 72 h at 37° C.
Summary of the method: as §2

[19] = tested on: M. smegmatis ΔrrnB 1408G (16S rRNA position 1408 G, eukaryotic cytosolic ribosomes); test: MIC, recombinant M. smegmatis with mutant ribosomes 1408G; type: cell-based, Mycobacterium smegmatis; conditions: M. smegmatis ΔrrnB 1408G mutant ribosomes; 72 h at 37° C.
Summary of the method: as §2

Molecule	Minimal inhibitory concentrations AG009 [1]	Minimal inhibitory concentrations AG002 [2]	Minimal inhibitory concentrations AG006 [3]	Minimal inhibitory concentrations AG004 [4]	Minimal inhibitory concentrations AG014 [5]	minimal inhibitory concentrations ΔrrnB 1491A [6]	Minimal inhibitory concentrations AG007 [7]	Minimal inhibitory concentrations AG011 [8]	Minimal inhibitory concentrations AG001 [9]	Minimal inhibitory concentrations AG019 [10]	Minimal inhibitory concentrations AG003 [11]	Minimal inhibitory concentrations AG013 [12]	Minimal inhibitory concentrations AG015 [13]	Minimal inhibitory concentrations AG016 [14]	Minimal inhibitory concentrations AG008 [15]	Minimal inhibitory concentrations AG017 [16]	minimal inhibitory concentrations ΔrrnB [17]	minimal inhibitory concentrations ΔrrnB 1491C [18]	minimal inhibitory concentrations ΔrrnB 1408G [19]
NC[C@@H]1O[C@H](O[C@H]2[C@@H](O)[C@H](O[C@@H]3[C@@H](O)[C@H](N)C[C@H](N)[C@H]3O[C@H]3O[C@@H]4CO[C@@H](c5ccccc5)O[C@H]4[C@H](O)[C@H]3N)O[C@@H]2CO)[C@H](N)[C@@H](O)[C@@H]1O [Compound 5.1, 4′,6′-O-benzylideneparomomycin]	128 µg/mL (≈ 182 µM)	64 µg/mL (≈ 90.9 µM)	32 µg/mL (≈ 45.5 µM)	32 to 64 µg/mL	8 µg/mL (≈ 11.4 µM)	512 µg/mL	32 µg/mL (≈ 45.5 µM)	8 µg/mL (≈ 11.4 µM)	64 µg/mL (≈ 90.9 µM)	256 µg/mL (≈ 364 µM)	32 µg/mL (≈ 45.5 µM)	8 to 16 µg/mL	32 to 64 µg/mL	16 to 32 µg/mL	32 µg/mL (≈ 45.5 µM)	32 to 64 µg/mL	4 µg/mL	>512 µg/mL	512 µg/mL
NC[C@@H]1O[C@H](O[C@H]2[C@@H](O)[C@H](O[C@@H]3[C@@H](O)[C@H](N)C[C@H](N)[C@H]3O[C@H]3O[C@@H]4CO[C@@H](c5ccc(C(F)(F)F)cc5)O[C@H]4[C@H](O)[C@H]3N)O[C@@H]2CO)[C@H](N)[C@@H](O)[C@@H]1O [Compound 5.17, 4′,6′-O-p-Trifluoromethylbenzylideneparomomycin]	64 to 128 µg/mL	32 to 64 µg/mL	32 µg/mL (≈ 41.5 µM)	32 µg/mL (≈ 41.5 µM)	4 µg/mL (≈ 5.18 µM)	512 µg/mL	32 µg/mL (≈ 41.5 µM)	4 µg/mL (≈ 5.18 µM)	32 to 64 µg/mL	128 µg/mL (≈ 166 µM)	32 to 64 µg/mL	4 to 8 µg/mL	32 µg/mL (≈ 41.5 µM)	8 µg/mL (≈ 10.4 µM)	32 µg/mL (≈ 41.5 µM)	32 µg/mL (≈ 41.5 µM)	2 to 4 µg/mL	512 µg/mL	>512 µg/mL
NC[C@@H]1O[C@H](O[C@H]2[C@@H](O)[C@H](O[C@@H]3[C@@H](O)[C@H](N)C[C@H](N)[C@H]3O[C@H]3O[C@@H]4CO[C@@H](CCc5ccccc5)O[C@H]4[C@H](O)[C@H]3N)O[C@@H]2CO)[C@H](N)[C@@H](O)[C@@H]1O [Compound 5.25, 4′,6′-O-(3-Phenyl)-propylideneparomomycin]	64 to 128 µg/mL	32 to 64 µg/mL	16 to 32 µg/mL	32 µg/mL (≈ 43.7 µM)	4 µg/mL (≈ 5.47 µM)	≧512 μg/ml	16 to 32 µg/mL	4 µg/mL (≈ 5.47 µM)	32 to 64 µg/mL	32 µg/mL (≈ 43.7 µM)	32 µg/mL (≈ 43.7 µM)	4 to 8 µg/mL	8 to 16 µg/mL	8 µg/mL (≈ 10.9 µM)	32 µg/mL (≈ 43.7 µM)	8 µg/mL (≈ 10.9 µM)	1 µg/mL	≧512 μg/ml	512 µg/mL
NC[C@@H]1O[C@H](O[C@H]2[C@@H](O)[C@H](O[C@@H]3[C@@H](O)[C@H](N)C[C@H](N)[C@H]3O[C@H]3O[C@@H]4COC(C=Cc5ccccc5)O[C@H]4[C@H](O)[C@H]3N)O[C@@H]2CO)[C@H](N)[C@@H](O)[C@@H]1O (stereo partly shown) [Compound 5.26, 4′,6′-O-(3-Phenyl)-propenylideneparomomycin]	128 µg/mL (≈ 175 µM)	64 µg/mL (≈ 87.7 µM)	32 µg/mL (≈ 43.8 µM)	32 µg/mL (≈ 43.8 µM)	4 µg/mL (≈ 5.48 µM)	≧512 μg/ml	32 µg/mL (≈ 43.8 µM)	4 µg/mL (≈ 5.48 µM)	32 to 64 µg/mL	64 to 128 µg/mL	32 µg/mL (≈ 43.8 µM)	4 to 8 µg/mL	16 to 32 µg/mL	8 µg/mL (≈ 11 µM)	32 µg/mL (≈ 43.8 µM)	16 to 32 µg/mL	2 to 4 µg/mL	≧512 μg/ml	≧512 μg/ml
NC[C@H]1O[C@H](O[C@H]2[C@H](O)[C@@H](O[C@H]3O[C@H](CO)[C@@H](O)[C@H](N)[C@H]3O)[C@H](N)C[C@@H]2N)[C@H](O)[C@@H](O)[C@@H]1O [Kanamycin A, kanamycin A, reference compound]	>256 µg/mL	16 µg/mL (≈ 33 µM)	8 µg/mL (≈ 16.5 µM)	64 µg/mL (≈ 132 µM)	≧256 mg/l		8 µg/mL (≈ 16.5 µM)	16 µg/mL (≈ 33 µM)	16 µg/mL (≈ 33 µM)	>256 µg/mL	32 µg/mL (≈ 66 µM)	≧256 mg/l	256 µg/mL (≈ 528 µM)	4 to 8 µg/mL	128 µg/mL (≈ 264 µM)	32 to 64 µg/mL			
Gentamicin [reference compound]	32 µg/mL	2 µg/mL	4 µg/mL	>256 µg/mL	≧256 mg/l		128 µg/mL	4 µg/mL	4 µg/mL	>256 µg/mL	≧256 mg/l	≧256 mg/l	4 µg/mL	1 µg/mL	64 µg/mL	8 to 16 µg/mL			
